{"source": "patent US8088752B2", "about": "“Methods for metabolic modulation” (VDF FutureCeuticals, Inc., priority 2003, dated 2012)", "key": {"activated Akt": {"system": "activated Akt", "assay": "Level of activated Akt in muscle cells, Western immunoblotting", "format": "cell-based, mouse", "conditions": "for FOLD AKT ACTIVATION (OVER CONTROL): 30 minutes; for Akt activity (in words): summary of Table 2", "description": "(§1) In Vitro Effect of Selected Compounds on Glut-4, activated AMPK, and activated Akt The levels of Glut-4, activated AMPK and activated Akt were measured in mouse muscle cells C2C12 (from ATTC) and in primary culture of human skeletal muscle cells (Clonetics, Inc.) using Western immunoblotting. C2C12 cells were plated at […] cells per mL/well (12-well plate) in standard cell culture medium (DMEM supplemented with 10% fetal bovine serum (FBS), 25 mM glucose, 20 mM Hepes, 4 mM glutamine and 2 mM sodium pyruvate. 48 hrs after the plating, medium was changed to differentiation medium (DMEM supplemented with 5 mM of glucose and 0.5% of FBS) for next 3-4 days to stimulate the formation of myotubes. Three hrs before the treatment with selected agents, cells were washed with PBS and transferred to PBS supplemented with 5 mM of glucose.\n(§2) Human skeletal muscle cells (HSKM) were cultured in SKBM-2 mediums provided by Clonetics. 48 hrs after cell plating, medium was changed to SKBM medium to stimulate differentiation of the cells to myotubes. When differentiated, the myotubes were transferred to PBS supplemented with 5 mM glucose for three hrs before the treatment.\n(§3) Analysis of C2C12 cells for the level of activated AMPK, Akt and the level of GLUT-4 was performed in the same experimental system. The cells were treated for 30 minutes at 37° C. […] Subsequently, 20 μg per sample of sample protein was used for Western analysis using NuPage 10% Bis/Tris gels (Invitrogen). After exposure of membranes to primary and secondary antibodies AMPK, AKT or Glut-4 was detected using ECL-Plus (Amersham) following producer's instruction. Chemilumiscent signals were detected by using ChemiDoc system from Biorad. Intensity of detected signals were analyzed and measured using Quantity One software (Biorad). Alternatively, the level of phosphorylated AMPK was detected using ECL kit from Amersham and short exposure to Kodak films.\n(§4) Experimental setup: Cell Culture was followed by treatment with selected contemplated compounds, which was followed by cell lysis and western blot analysis for AMPK, Akt, GLUT4, total AMPK, and total Akt. Signals were acquired accordingly."}, "activated AMPK": {"system": "activated AMPK", "assay": "Level of activated AMPK in muscle cells, Western immunoblotting", "format": "cell-based, mouse", "conditions": "for AMPK activity (in words): summary of Table 1", "description": "as §1, §2, §3, §4"}, "[1]": {"assay": "Serum level of DHZ in mice after oral or i.p. administration (ELISA)", "format": "in vivo, mouse", "conditions": "C57/B1 mice, 100 microgram/dose", "description": "C57/B1 mice were treated with 100 microgram/dose of dihydrozeatin (DHZ) for 0, 15, 30, 60 and 120 minutes following oral or i.p. administration. Serum level of DHZ in pg/ml was measured using DHZ Elisa following procedures as enclosed in a commercially available test kit (e.g., dihydrozeatin competitive ELISA test system for plant growth hormone detection, Agdia, Elkhard, Ind.). Three animals were used per experimental point."}, "muscle cells": {"system": "muscle cells", "assay": "In vitro myocyte total glucose uptake, fluorescent glucose analog", "format": "cell-based", "conditions": "summary of Table 4", "description": "Total glucose uptake was measured using fluorescent glucose analog from Molecular Probes. Briefly, muscle cells were treated with kinetin, N^2-Acetyl-Guanosine and N^2-Acetyl-Guanine for 30 minutes at 37 C first and subsequently, these cells were exposed to 500 μM of fluorescent glucose analog for 5 minutes at room temperature. Next, cells were washed twice with cold Krebs-Hepes buffered solution and fixed in 70% ethanol in water. Fluorescence of fluorescent glucose in the cells was measured using fluorescent plate reader at 480/530 nm (excitation/emission). […] Table 4 refers to multiple independent experiments where multiple identical concentrations for the same reagents are indicated."}, "GLUT-4": {"system": "GLUT-4", "assay": "GLUT-4 protein level in C2C12 cells, Western immunoblotting", "format": "cell-based, mouse", "conditions": "summary of Table 3", "description": "as §1\nAnalysis of C2C12 cells for the level of activated AMPK, Akt and the level of GLUT-4 was performed in the same experimental system. The cells were treated for 30 minutes at 37° C. […] After exposure of membranes to primary and secondary antibodies AMPK, AKT or Glut-4 was detected using ECL-Plus (Amersham) following producer's instruction. Chemilumiscent signals were detected by using ChemiDoc system from Biorad. Intensity of detected signals were analyzed and measured using Quantity One software (Biorad). Alternatively, the level of phosphorylated AMPK was detected using ECL kit from Amersham and short exposure to Kodak films. […]"}}, "note": "“Also recorded” adds a separate entry of the source.", "data": [{"compound": "NC(=O)c1ncn([C@@H]2O[C@H](CO)[C@@H](O)[C@H]2O)c1N", "note": "[AICAR, 4-Amino-5-imidazolecarboxamide riboside, reference compound]", "values": [{"measurement": "FOLD AKT ACTIVATION (OVER CONTROL)", "setting": "activated Akt; 50.0 microM", "result": 2.20, "unit": "fold"}]}, {"compound": "c1ccc(CNc2ncnc3nc[nH]c23)cc1", "note": "[Benzyl-Adenine]", "values": [{"measurement": "FOLD AMPK ACTIVATION (OVER CONTROL)", "setting": "activated AMPK; 5.0 microM, 30 minutes", "result": 2.70, "unit": "fold"}]}, {"compound": "CC(CO)CCNc1ncnc2nc[nH]c12", "note": "(stereo not drawn) [Dihydro-Zeatin, dihydrozeatin]", "values": [{"measurement": "time over which significant serum concentrations can be maintained", "setting": "[1]", "result": "at least 120 minutes"}, {"measurement": "oral bioavailability (in words)", "setting": "[1]; oral", "result": "readily bioavailable from the oral route"}]}, {"compound": "CC(C)=CCNc1ncnc2nc[nH]c12", "note": "[Gamma, Gamma-Dimethylally-6-Aminopurine]", "values": [{"measurement": "FOLD AKT ACTIVATION (OVER CONTROL)", "setting": "activated Akt; 0.8 microM", "result": 1.90, "unit": "fold"}]}, {"compound": "Nc1nc2c(ncn2[C@@H]2O[C@H](CO)[C@@H](O)[C@H]2O)c(=O)[nH]1", "note": "[Guanosine]", "values": [{"measurement": "AMPK activity (in words)", "setting": "activated AMPK", "result": "potent activators of AMPK as well as Akt"}, {"measurement": "Akt activity (in words)", "setting": "activated Akt", "result": "potent activators of AMPK as well as Akt"}]}, {"compound": "c1coc(CNc2ncnc3[nH]cnc23)c1", "note": "[Kinetin, kinetin]", "values": [{"measurement": "AMPK activity (in words)", "setting": "activated AMPK", "result": "more potent compounds"}, {"measurement": "glucose uptake in muscle cells in vitro (in words)", "setting": "muscle cells", "result": "potently enhance glucose uptake"}, {"measurement": "GLUT-4 protein level (in words)", "setting": "GLUT-4", "result": "potently increase GLUT-4 protein level"}]}, {"compound": "CN(C)C(=N)N=C(N)N", "note": "[Metformin, reference compound]", "values": [{"measurement": "FOLD AKT ACTIVATION (OVER CONTROL)", "setting": "activated Akt; 20.0 milliM", "result": 2.32, "unit": "fold"}]}, {"compound": "CC(=O)Nc1nc2nc[nH]c2c(=O)[nH]1", "note": "[N^2-Acetyl-Guanine, N2-acetylguanine]", "values": [{"measurement": "AMPK activity (in words)", "setting": "activated AMPK", "result": "potent activators of AMPK as well as Akt"}, {"measurement": "Akt activity (in words)", "setting": "activated Akt", "result": "potent activators of AMPK as well as Akt"}, {"measurement": "glucose uptake in muscle cells in vitro (in words)", "setting": "muscle cells", "result": "potently enhance glucose uptake"}, {"measurement": "GLUT-4 protein level (in words)", "setting": "GLUT-4", "result": "potently increase GLUT-4 protein level"}]}, {"compound": "CC(=O)Nc1nc2c(ncn2[C@@H]2O[C@H](CO)[C@@H](O)[C@H]2O)c(=O)[nH]1", "note": "[N^2-Acetyl-Guanosine]", "values": [{"measurement": "AMPK activity (in words)", "setting": "activated AMPK", "result": "potent activators of AMPK as well as Akt"}, {"measurement": "Akt activity (in words)", "setting": "activated Akt", "result": "potent activators of AMPK as well as Akt"}, {"measurement": "glucose uptake in muscle cells in vitro (in words)", "setting": "muscle cells", "result": "potently enhance glucose uptake"}, {"measurement": "GLUT-4 protein level (in words)", "setting": "GLUT-4", "result": "potently increase GLUT-4 protein level"}]}, {"compound": "C/C(=C\\CNc1ncnc2nc[nH]c12)CO", "note": "[Trans-Zeatin]", "values": [{"measurement": "FOLD AKT ACTIVATION (OVER CONTROL)", "setting": "activated Akt; 1.0 microM", "result": 0.90, "unit": "fold"}, {"measurement": "FOLD AKT ACTIVATION (OVER CONTROL)", "setting": "activated Akt; 10.0 microM", "result": 0.86, "unit": "fold"}]}, {"compound": "C/C(=C\\CNc1ncnc2[nH]cnc12)CO", "note": "[Zeatin]", "values": [{"measurement": "AMPK activity (in words)", "setting": "activated AMPK", "result": "more potent compounds; also recorded: potent stimulator of AMPK"}, {"measurement": "FOLD AKT ACTIVATION (OVER CONTROL)", "setting": "activated Akt; 1.0 microM", "result": 0.95, "unit": "fold"}, {"measurement": "Akt activity (in words)", "setting": "activated Akt", "result": "not Akt"}]}, {"compound": "Insulin: Insulin, comparator in the Akt activation test", "values": [{"measurement": "FOLD AKT ACTIVATION (OVER CONTROL)", "setting": "activated Akt; 0.10 nanoM", "result": 1.75, "unit": "fold"}, {"measurement": "FOLD AKT ACTIVATION (OVER CONTROL)", "setting": "activated Akt; 25.0 nanoM", "result": 3.40, "unit": "fold"}, {"measurement": "FOLD AKT ACTIVATION (OVER CONTROL)", "setting": "activated Akt; 50.0 nanoM", "result": 3.28, "unit": "fold"}]}]}
